In patent publication US7273856B2, “Linear basic compounds having NK-2 antagonist activity and formulations thereof” (Menarini Ricerche S.P.A., priority 2001, dated 2007):
Structures can show the parent of a compound that is named as a salt.

Target: T1, human NK-2 receptor (Homo sapiens, UniProt P21452)
T1 construct: expressed in transfected cells; host or cells: CHO (Chinese hamster ovary) cells, membranes
T1 sequence (P21452 1-398): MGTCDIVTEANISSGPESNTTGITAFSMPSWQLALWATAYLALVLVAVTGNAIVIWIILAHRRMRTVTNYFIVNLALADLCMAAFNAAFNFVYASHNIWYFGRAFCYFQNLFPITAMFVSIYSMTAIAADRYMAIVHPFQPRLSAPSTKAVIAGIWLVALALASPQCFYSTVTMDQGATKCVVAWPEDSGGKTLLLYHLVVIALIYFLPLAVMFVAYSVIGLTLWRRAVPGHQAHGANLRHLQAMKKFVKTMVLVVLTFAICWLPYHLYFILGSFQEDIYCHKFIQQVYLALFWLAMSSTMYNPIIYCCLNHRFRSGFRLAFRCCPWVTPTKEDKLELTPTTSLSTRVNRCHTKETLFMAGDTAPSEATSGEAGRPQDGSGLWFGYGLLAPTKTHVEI
Assay: binding test, affinity for the human NK-2 receptor, competition with [125I]NKA on transfected CHO cell membranes
Conditions: CHO cell membranes transfected with NK-2 receptor of human ileum; [125I]NKA 100 pM; 30 min, 20° C.
Description: The evaluation of the antagonist activity on NK-2 receptors has been assessed by binding and functional tests according to that already described in literature in relation to NK-2 antagonists.
The test substances have been tested within a concentration range from 0.01 nM to 10 nM. At the end of the incubation time (30 min, 20° C.) the samples have been filtered and radioactivity has been determined using a gamma-counter.

O=C(NC1(C(=O)N[C@H](Cc2ccccc2)C(=O)NCC2CCN(C3CCSCC3)CC2)CCCC1)c1cc2ccccc2s1 [Example 81, Benzo[b]thiophene-2-carboxylic acid [1-(2-phenyl-1(R)-{[1-(tetrahydro-thiopyran-4-yl)-piperidin-4-ylmethyl]-carbamoyl}-ethylcarbamoyl)-cyclopentyl]-amide TFA salt]
Ki: 0.0794 nM

Cc1ccc(C[C@@H](NC(=O)C2(NC(=O)c3cc4ccccc4s3)CCCC2)C(=O)N[C@H]2CC[C@@H](C(=O)N[C@H]3CCCC[C@@H]3N(C)C)C2)cc1 [Example 9, N^γ{N^α[N^α(benzo[b]thiophen-2-ylcarbonyl)-1-aminocyclopentan-1-carboxy]-D-4-methyl-phenylalanyl}-(1R,3S)-3-aminocyclopentane-1-carboxylic-acid-N-(1S,2S)-2-dimethyl aminocyclohexyl)amide hydrochloride salt]
Ki: 1.58 nM

N[C@H]1CCCC[C@@H]1NC(=O)C1CCCC(NC(=O)[C@@H](Cc2ccccc2)NC(=O)C2(NC(=O)c3cc4ccccc4s3)CCCC2)C1 (stereo partly drawn) [Example 31, acid-3-cis-N^γ{N^α[N^α(benzo[b]thiophen-2-ylcarbonyl)-1-aminocyclopentan-1-carboxy]-D-phenylalanil}aminocyclohexan-1-carboxylic-N-[(1S,2S)-aminocyclohexyl]amide]
Ki: 0.0794 nM

N#CCN1CCC(CCNC(=O)[C@@H](Cc2ccccc2)NC(=O)C2(NC(=O)c3cc4ccccc4s3)CCCC2)CC1 [Example 87, Benzo[b]thiophene-2-carboxylic acid (1-{1(R)-[2-(1-cyanomethyl-piperidin-4-yl)-ethylcarbamoyl]-2-phenyl-ethylcarbamoyl}-cyclopentyl)-amide TFA salt]
Ki: 1.26 nM

O=C(NC1(C(=O)N[C@H](Cc2ccccc2)C(=O)NCC2CCN(CC3CCOCC3)CC2)CCCC1)c1cc2cccc(I)c2s1 [Example 132, 7-Iodo-benzo[b]thiophene-2-carboxylic acid [1-(2-phenyl-1R-{[1-(tetrahydro-pyran 4-ylmethyl)-piperidin-4-ylmethyl]-carbamoyl}-ethylcarbamoyl)-cyclopentyl]-amide]
Ki: 0.0316 nM
